Earlier results in US20070287651A1, “Bleaching compositions” (The Procter & Gamble Company, priority 2006, published 2007).

Conditions: deionized water at 25° C. (definition)

For `c1ccc2oc(-c3ccc(-c4nc5ccccc5o4)s3)nc2c1` [Tinopal SOP, benzoxazole,2,2′-(thiophenaldyl)bis], the solubility in water is listed as “lower than 1 gram per liter”.
